Measurements: ChEMBL document CHEMBL1201862, “PubChem BioAssay data set” (2004)
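Tested at 5 concentrations; 48 h exposure; 96-well plates; endpoints linearly interpolated, else capped at highest concentration. GI50 marks 50% less growth.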 Calls of active or inactive are those of the source. No stated cut-off is given here; in the data, active = GI50 up to about 1.1 µM and inactive = higher.

How the values were obtained:
Assay in all cases: DTP human tumour cell line panel, 48 h
PC-3 = system: PC-3
T47D = system: T47D
MDA-MB-435 = system: MDA-MB-435
DLD-1 = system: DLD-1
LXFL 529 = system: LXFL 529
KM-20L2 = system: KM-20L2
MDA-MB-231 = system: MDA-MB-231
DMS-114 = system: DMS-114
RXF 631 = system: RXF 631

Row | Structure (SMILES) | GI50 (PC-3) | GI50 (T47D) | GI50 (MDA-MB-435) | GI50 (DLD-1) | GI50 (LXFL 529) | GI50 (KM-20L2) | GI50 (MDA-MB-231) | GI50 (DMS-114) | GI50 (RXF 631)
1 | C/C(=C\c1ccccc1)n1c(=O)cc(C)n1C | > 100 µM (inactive) | > 100 µM (inactive) | > 100 µM (inactive) |  |  |  |  |  | 
2 | CN(C)CN(C)c1nc(N(C)C)nc(N(C)CN(C)C)n1 |  |  |  | 42.7 µM (inactive) | 30.3 µM (inactive) | 74.5 µM (inactive) |  |  | 
3 | Cc1cc([N+](=O)[O-])ccc1/N=N/C(=O)NNc1ccc([N+](=O)[O-])cc1C | 13.5 µM (inactive) | 15.3 µM (inactive) | 12.8 µM (inactive) |  |  |  | > 10 µM (inactive) |  | 
4 | COn1oc(=O)c2ccccc21 | > 100 µM (inactive) |  | > 100 µM (inactive) |  |  |  | > 100 µM (inactive) |  | 
5 | Nc1nc(Cl)cc(NCCCCO)n1 |  |  |  | > 100 µM (inactive) | > 100 µM (inactive) | > 100 µM (inactive) |  | > 100 µM (inactive) | > 100 µM (inactive)
6 | C[C@]12CCC3[C@@H](C[C@H]4OC(=O)[C@@]35CCC(=O)C=C45)C1CCC2=O (stereo partly drawn) |  |  |  | > 100 µM (inactive) | > 100 µM (inactive) |  |  | > 100 µM (inactive) | 
7 | Cc1ccc(NC(=O)C2C(=O)N(c3ccc(C)c(C)c3)C(=O)/C2=N\NC(N)=S)cc1C (stereo not drawn) |  |  |  | 79.6 µM (inactive) | > 100 µM (inactive) | > 100 µM (inactive) |  |  | > 100 µM (inactive)
8 | O=P(Nc1ccc(Cl)cc1)(Oc1ccccc1)N(CCCl)CCCl (stereo not drawn) |  |  |  | > 100 µM (inactive) | > 100 µM (inactive) | > 100 µM (inactive) |  | > 100 µM (inactive) | 63.7 µM (inactive)
9 | Oc1cc(-c2ccc(Cl)cc2)nc2ncccc12 |  | 61.7 µM (inactive) |  |  |  |  | 64.6 µM (inactive) |  | 
10 | CCC1NC(/N=N/c2ccc([N+](=O)[O-])cc2)(P(=O)(OC(C)C)OC(C)C)OC1=O (stereo not drawn) |  |  |  | > 100 µM (inactive) | > 100 µM (inactive) | > 100 µM (inactive) |  |  | 
11 | CC(C)(C)c1ccc2c(c1)OP1(Oc3cccc4cccnc34)(O2)Oc2ccc(C(C)(C)C)cc2O1 |  |  |  | 3.92 µM (inactive) |  | 4.05 µM (inactive) |  | 0.71 µM (active) | 
12 | CC(C)(C)OC(=O)/C=C/C(=O)O/C=C/[N+](=O)[O-] |  |  | > 100 µM (inactive) |  |  |  | > 100 µM (inactive) |  | 
13 | O=C1Nc2ccc(Br)cc2/C1=N/c1ccc(Cl)cc1 | 25.3 µM (inactive) | 16.9 µM (inactive) | 2.87 µM (inactive) |  |  |  | 15.5 µM (inactive) |  | 
14 | Oc1[nH]c(Nc2cccc(CC(F)(F)F)c2)nc2ncnc1-2 | > 100 µM (inactive) | > 100 µM (inactive) | > 100 µM (inactive) |  |  |  | > 100 µM (inactive) |  | 
15 | COC(C[C@H]1CCCC[C@]1(O)/C(=C\CO[Si](C(C)C)(C(C)C)C(C)C)Sc1ccccc1)OC | 35.6 µM (inactive) | 12.6 µM (inactive) | 33 µM (inactive) |  |  |  | 18.9 µM (inactive) |  | 
16 | COc1cc2c(cc1OCCCC(=O)Nc1cc(C(=O)Nc3cc(C(=O)Nc4cc(C(=O)NCCCN(C)C)n(C)n4)n(C)n3)n(C)n1)N=CC1CCCN1C2=O (stereo not drawn) | 31.3 µM (inactive) | 56 µM (inactive) | 20.1 µM (inactive) |  |  |  | 24.2 µM (inactive) |  | 
17 | Cc1[nH]c(-c2ccccc2)c(O)c1C(=O)OC1CC(C)CCC1C(C)C (stereo not drawn) | 13.8 µM (inactive) | 13.7 µM (inactive) | 14.8 µM (inactive) |  |  |  | 15.5 µM (inactive) |  | 
18 | CCOC(=O)CC1(c2cccc3ccccc23)OC(=O)c2ccccc21 (stereo not drawn) |  |  |  | 8.69 µM (inactive) | 51.2 µM (inactive) | 45 µM (inactive) |  | 30.6 µM (inactive) | 
19 | CON(C)c1nc(N)c(C#N)c(C#N)c1C#N | > 10 µM (inactive) | > 10 µM (inactive) | > 10 µM (inactive) |  |  |  | > 10 µM (inactive) |  | 
20 | C=C1C(O)C2(O)OCC34C(CC5C(C)=CC(=O)C(O)C5(C)C23)OC(=O)C(OC(=O)C/C=C/CCCCCCCC)C14 (stereo not drawn) |  |  |  | 0.02 µM (active) |  | 0.0208 µM (active) |  | 0.02 µM (active) | 
21 | O=S(O)CCCCCSSc1ccccc1 |  |  |  | 54.8 µM (inactive) | 17 µM (inactive) |  |  | 23.6 µM (inactive) | 
22 | C[C@@H](NC(=O)[C@@H]1C[C@]1(C)COC(=O)c1cc([N+](=O)[O-])cc([N+](=O)[O-])c1)c1cccc2ccccc12 | > 100 µM (inactive) | 65.3 µM (inactive) | > 100 µM (inactive) |  |  |  | > 100 µM (inactive) |  | 
